“Also recorded” adds a separate entry of the source. Like-named read-outs stand apart in the source and are kept apart here.
Tests used:
HTLV-I = test: Co-culture assay for HTLV-I, virus replication by p19 Gag ELISA; format: cell-based; settings: for concentration inhibiting HTLV-I replication as measured by p19 ELISA: 2 weeks; for antiviral activity: 2 weeks post infection, up to 25 μM; for EC50: read-out: HTLV-I EC50; for suppression of virus replication greater than 50% (p19 ELISA): 2 and 4 weeks co-culture; for concentration inhibiting HTLV-I virus replication from infected PBMCs: 3 weeks post-infection
Procedure: PBMC Preparation: Fresh human peripheral blood mononuclear cells (PBMCs), obtained from Biological Specialty Corporation, Bristol, Pa., were confirmed as seronegative for HIV and HBV. Depending on the volume of the donor blood received, the leukophoresed blood cells were washed several times with PBS. After washing, the leukophoresed blood was diluted 1:1 with Dulbecco's phosphate buffered saline (PBS) and layered over 15 mL of Ficoll-Hypaque density gradient in a 50 mL conical centrifuge tube. These tubes were then centrifuged for 30 min at 600 g. Banded PBMCs were gently aspirated from the resulting interface and subsequently washed three times with PBS by low speed centrifugation. After the final wash, cells were enumerated by trypan blue dye exclusion and re-suspended at 1×10^6 cells/mL in RPMI 1640 with 15% Fetal Bovine Serum (FBS), 2 mmol/L L-glutamine, 2 μg/mL phytohemagglutinin (PHA-P), 100 Units/mL penicillin and 100 μg/mL streptomycin and allowed to incubate for 48-72 hr at 37° C.
After incubation, PBMCs were centrifuged and resuspended in PBMC medium (RPMI 1640 with 15% FBS, 2 mmol/L L-glutamine, 100 U/mL penicillin, 100 μg/mL streptomycin and 20 U/mL recombinant human IL-2). The cultures were then maintained for the remainder of the experiment by exchange of half the culture volume with fresh IL-2 containing tissue culture medium every 3 days. Assays were initiated with PBMCs that had been induced to proliferate for 72 hr. Stimulated PBMCs from two donors were pooled together to minimize the variability between individual donors and 8×10^6 cells were resuspended in 9 mL of fresh tissue culture medium per T25 flask.
HDP-TFV was evaluated at concentrations of 0.04, 0.2, 1 and 10 μM. AZT and tenofovir were evaluated at concentrations of 0.1, 1, 5 and 25 μM. HDP-TFV, AZT, or tenofovir were added to the PBMCs 10 hours prior to infection.
MT-2 Preparation: MT-2 cells were obtained from the NIH AIDS Research and Reference Reagent Program and passaged in T-75 flasks in RPMI 1640 medium, supplemented with 10% heat inactivated fetal bovine serum, 2 mmol/L L-glutamine, 100 U/ml penicillin and 100 μg/ml streptomycin. Total cell and viability quantification were performed using hemocytometer and trypan blue dye exclusion. The cells were incubated in 10 mL of 200 μg/mL mitomycin C for 1 hour at 37° C./5% CO2, washed 3 times in Dulbecco's phosphate buffered saline (DPBS), and resuspended in PBMC medium at 1.6×10^6 cells per mL. One mL of treated MT-2 cells was added to each T25 flask, except for the PBMC only control.
(§1) Co-Culture for HTLV-I Replication: Cell cultures were incubated at 37° C./5% CO2 for four weeks. Cell viability and density was monitored by trypan blue dye exclusion test. Cell density was readjusted to 8×10^5 cells per mL on days 3, 7, 10, 14, 21 and 28. Compound was added with the half-volume fresh medium exchange on days 3, 7, and 10. Supernatant was collected on days 14, 21 and 28 for measurement of HTLV-I virus replication by p19 Gag ELISA. Cell samples were also collected on days 14 and 28 for genomic DNA extraction and PCR analysis of HTLV-I proviral DNA. Untreated PBMCs co-cultured with MT-2 cells, PBMCs alone, and mitomycin C-treated MT-2 cells alone were cultured in parallel as controls.
HTLV-I p19 Gag ELISA: ELISA was performed to quantify p19 in cell-free supernatants according to the manufacturer's instructions (ZeptoMetrix, Buffalo, N.Y.). Briefly, 50 μL of the kit p19 standard was added to 950 μL assay diluent in microtiter tubes and serially diluted 1:2. After washing the microtiter plate with 1× plate wash buffer, 200 μL of the diluted standards were added in duplicate to the coated wells. In duplicate, 200 μL of media was added as negative controls. Cell culture supernatants were diluted 1:9 with media and mixed with 50 μL of lysis buffer in duplicate. Two hundred microliters of diluted sample was added to the coated wells and incubated at 37° C. for 2 hours. […]

[1] = Cell viability of infected PBMCs by trypan blue dye exclusion; format: cell-based, human; settings: human, infected PBMCs, read-out: HTLV-I TC50; for CC50 at 2 weeks: 2 wks post infection; for CC50 at 3 weeks: 3 wks post infection; for CC50 at 4 weeks: 4 wks post infection
Procedure: as §1
(§2) Anti-HTLV-I Evaluations: HDP-TFV K^+ salt and tenofovir were evaluated for HTLV-I inhibition in human PBMCs co-cultured with mitomycin C treated MT-2 cells at four concentrations of each compound. AZT was evaluated in parallel as a control compound. […] Cell viability was monitored by trypan blue dye exclusion. AZT and tenofovir were not toxic to the infected PBMCs at concentrations up to 25 μM at 2, 3, or 4 weeks post infection.
as §2, with “Evaluations: HDP-CDV” for “Evaluations: HDP-TFV K^+ salt”, “and cidofovir” for “and tenofovir”, “AZT was” for “AZT and tenofovir were”

infected PBMCs = test: as above; format: cell-based, human; settings: for toxicity as fresh compound was added to the cultures up to day 10: infected PBMC cultures; for CC50: infected PBMCs, read-out: HTLV-I TC50
Procedure: as §1, §2
as §2, with “Evaluations: HDP-CDV” for “Evaluations: HDP-TFV K^+ salt”, “and cidofovir” for “and tenofovir”, “AZT was” for “AZT and tenofovir were”

[2] = Primate T-lymphotropic virus 1, MT2, 336 h, 2 wks post infection, human PBMCs co-cultured with mitomycin C treated MT-2 cells
[3] = Primate T-lymphotropic virus 1, MT2, 504 h, 3 wks post infection, human PBMCs co-cultured with mitomycin C treated MT-2 cells
[4] = Primate T-lymphotropic virus 1, MT2, 672 h, 4 wks post infection, human PBMCs co-cultured with mitomycin C treated MT-2 cells
[5] = concentrations up to 25 μM at 2, 3, or 4 weeks post infection

Compound | concentration inhibiting HTLV-I replication as measured by p19 ELISA (HTLV-I) | antiviral activity (HTLV-I) | EC50 (HTLV-I; [2]) | EC50 (HTLV-I; [3]) | EC50 (HTLV-I; [4]) | CC50 at 2 weeks [1] | CC50 at 3 weeks [1] | CC50 at 4 weeks [1] | toxicity to the infected PBMCs (infected PBMCs; [5]) | suppression of virus replication greater than 50% (p19 ELISA) (HTLV-I) | concentration inhibiting HTLV-I virus replication from infected PBMCs (HTLV-I) | toxicity as fresh compound was added to the cultures up to day 10 (infected PBMCs) | further results
Cc1cn([C@H]2C[C@H](N=[N+]=[N-])[C@@H](CO)O2)c(=O)[nH]c1=O [AZT, 3′-azido-2′,3′-dideoxythymidine] | above 3 μM | no antiviral activity | > 25 µM | 3.2 µM | 2.6 µM | > 25 µM | > 25 µM | > 25 µM | not toxic | – | – | – | –
Nc1ccn(C[C@@H](CO)OCP(=O)(O)O)c(=O)n1 [Cidofovir, (S)-9-(3-hydroxy-2-phosphonylmethoxypropyl)cytosine] | – | – | > 100 µM | 87.8 µM | > 100 µM | > 100 µM | > 100 µM | 80 µM | – | did not suppress | 100 µM | – | suppression of virus replication greater than 50% (p19 ELISA) (HTLV-I; listed as cidofovir): not reached; toxicity to the infected PBMCs (infected PBMCs; 100 μM, following 4 weeks in culture): slightly toxic
CCCCCCCCCCCCCCCCOCCCOP(=O)(O)CO[C@H](CO)Cn1ccc(N)nc1=O [HDP-CDV, hexadecyloxypropyl cidofovir] | – | – | > 10 µM | 0.4 µM | > 10 µM | 7.5 µM | 3.2 µM | 1.4 µM | – | did not suppress; also recorded: not reached | above 3 μM | increasingly toxic | concentration showing moderate antiviral activity (HTLV-I; four weeks of infected PBMC culture, inhibition may be attributed to observed toxicity): ≥ 0.2 µM
CCCCCCCCCCCCCCCCOCCCOP(=O)(O)CO[C@H](C)Cn1cnc2c(N)ncnc21 [HDP-TFV, 3-(hexadecyloxy)propyl hydrogen ((R)-1-(6-amino-9H-purin 9-yl)propan-2-yloxy)methylphosphonate] | above 7 μM | – | – | – | – | > 10 µM | 6.3 µM | 1 µM | – | – | – | increasingly toxic | EC50 (HTLV-I; Primate T-lymphotropic virus 1, MT2, 336 h): 6.8 µM; EC50 (HTLV-I; Primate T-lymphotropic virus 1, MT2, 504 h): 0.9 µM; EC50 (HTLV-I; Primate T-lymphotropic virus 1, MT2, 672 h): 0.2 µM
C[C@H](Cn1cnc2c(N)ncnc21)OCP(=O)(O)O [Tenofovir, (R)-9-(2-phosphonylmethoxypropyl)adenine] | – | no antiviral activity | – | – | – | – | – | – | not toxic | – | – | – | EC50 (HTLV-I; 2 wks post infection, human PBMCs co-cultured with mitomycin C treated MT-2 cells): > 25 µM; EC50 (HTLV-I; 3 wks post infection, human PBMCs co-cultured with mitomycin C treated MT-2 cells): 10.3 µM; EC50 (HTLV-I; 4 wks post infection, human PBMCs co-cultured with mitomycin C treated MT-2 cells): 4.5 µM; CC50 (infected PBMCs; 2 wks post infection): > 25 µM; CC50 (infected PBMCs; 3 wks post infection): > 25 µM; CC50 (infected PBMCs; 4 wks post infection): > 25 µM
